# Measurements taken from patent US20250345383A1, “INTRANASAL ADMINISTRATION OF POLYSULFIDE” (The General Hospital Corporation, priority 2022, published 2025).
# Legend:
# [1] = tested on: primary cortical neurons; assay: Cell viability after oxygen and glucose deprivation/reoxygenation (OGD/R), primary cortical neurons; type: cell-based, mouse; settings: GSSSG at 30 μM, GSH at 60 μM, GSSG at 30 μM; vs vehicle-only treated cells
# Experimental: Primary cortical neurons were isolated from the cerebral cortices of C57BL/6J mice of both sexes at embryonic day 15, as previously described 39. Primary cortical neurons were maintained at 37° C. in a humidified tissue culture chamber with 5% CO2 and cells were used on day 11 after harvest. […] After reoxygenation, cell viability and cell injury were assessed using crystal violet and lactate dehydrogenase (LDH) assays, as previously described^39.
# [2] = tested on: mice subjected to SCI; assay: Mouse model of spinal cord ischemia (SCI): delayed paraplegia, hindlimb motor function by Basso mouse scale (BMS); type: in vivo
# Text: Adult C57BL/6J mice (12-18 weeks old) of both sexes were purchased from Jackson Laboratory (Bar Harbor, ME, USA). Both male and female mice were used in experiments to investigate the neuroprotective effect of GSSSG on motor function after SCI. […] All mice were housed in a temperature and humidity-controlled room in the animal center with a 12-hour light/dark cycle, and were provided with food and water ab libitum. To permit access by mice that were recovering from surgery, additional food pellets were inserted into hydrated gel placed on the bedding. A randomized paired design was used to minimize the variability between each treatment group. Mice were paired based on weight, age, delivery dates, and when possible, holding cages. After the pairing, mice were randomly assigned to different treatments.
# The surgical procedures to produce delayed paraplegia in mice were performed as previously described^6 (FIG. 2A). Mice were anesthetized with 5% isoflurane in 100% O2 and tracheally intubated with a 20-gauge catheter (Angiocath; Becton Dickinson, Franklin Lakes, NJ, USA). […] The paravertebral muscle temperature was measured using a T-type implantable thermocouple probe (IT-18) and a T-type pod (ADInstruments, Colorado Springs, CO, USA). […] A median sternotomy extended from the apex of the manubrium to the second rib. The aortic arch was gently isolated between the left common carotid artery (LCCA) and the left subclavian artery (LSA), avoiding the vagus nerve and the left recurrent laryngeal nerve. […] After ischemia, the clips were removed in reverse order. Incisions were closed in layers and mechanical ventilation was discontinued. After stable spontaneous respiration was confirmed, mice were extubated.
# The previously described surgical procedures^6 were modified as follows. The respiratory rate during the procedure was increased to 230 breaths/minute, because hyperventilation promotes the occurrence of delayed paraplegia caused by spinal cord ischemia^33. A laser Doppler perfusion monitor (moorVMS-LDF1; Moor Instruments, Millwey, UK) was used to monitor the femoral artery blood flow^28,29. […] To improve the accuracy of surgical procedures, a microscope (Leica MZ95; Leica Microsystems, Buffalo Grove, IL, USA) was used to isolate the aortic arch and place the clips.
# Study drugs were administered intranasally using a single-channel pipettor. Mice were anesthetized with 3% isoflurane using a non-rebreathing circuit with a mouse nose cone (VetEquip, Inc., Livermore, CA, USA). While the drugs were administered, the nose cone was removed and mice were allowed to breathe air. Approximately 6 μL of each drug was administered into the mouse's nostrils and the mouse inhaled the droplets during inspiration. […]
# [3] = LC-MS/MS of ^34S-labeled GSSSG and sulfane sulfur species in CNS and plasma after intranasal GS^34SSG; type: in vivo, mouse
# Experimental: We used LC-MS/MS analysis to measure the amount of ^34S-labeled GSSSG ([^32S2, ^34S]GSSSG) in the CNS and plasma after intranasal administration of GS^34SSG, an isotope of endogenous GSSSG^9,35,36. The ratios of ^34S-labeled sulfane sulfur species ([^32S, ^34S]GSSH, [^32S, ^34S]cysteine hydropersulfide (CysSSH), and [^32S2, ^34S]cysteine trisulfide (CysSSSCys)) to endogenous sulfane sulfur species ([^32S2]GSSH, [^32S2]CysSSH, and […]) were also quantitatively evaluated. At 30 minutes after intranasal administration of 50 mg/kg of GS^34SSG, blood was obtained and four different central nervous tissues were harvested: olfactory bulb and forebrain; brainstem; cervical and thoracic spinal cord, and lumbar spinal cord. A total of 30 mg of each tissue was homogenized in 300 μl of ice-cold methanol solution containing 5 mM β-(4-hydroxyphenyl)ethyl iodoacetamide (HPE-IAM; Santa Cruz Biotechnology, Dallas, TX, USA). Twenty-five μl of plasma was mixed with 75 μl of ice-cold methanol solution containing 5 mM HPE-IAM. Samples were incubated for 20 minutes at 37° C. in the dark. After centrifugation (14,000×g for tissues, 1,870×g for plasma, 10 minutes, 4° C.), the supernatant was separated and diluted with 0.1% formic acid for LC-MS/MS analysis, and the pellet was sonicated to measure the protein concentration by BCA assay. The amount of [^32S2, ^34S]GSSSG was quantified in selective reaction monitoring (SRM) with precursor ion (647.14 m/z), product ion (389.1 m/z), and higher energy collisional dissociation (21 v). The ratios of [^32S, ^34S]GSSH to [^32S2]GSSH, [^32S, ^34S]CysSSH to [^32S2]CysSSH, and [^32S2, ^34S]CysSSSCys to [^32S3]CysSSSCys were calculated from their peak area measured by Dionex UltiMate 3000 RS UPLC-Orbitrap Exploris 480 mass spectrometer (Thermo Fisher Scientific, Waltham, MA, USA). In brief, samples were subjected to the UPLC system with a Hypersil Gold C-18 (100×2.1 mm, 3.0 μm, Thermo Fisher Scientific, Waltham, MA, USA) column and were then eluted by a linear methanol gradient of the mobile phase (0-90%, 15 minutes) in the presence of 0.1% formic acid at a flow rate of 0.2 ml/minute at 40° C. The raw data were analyzed by Compound Discoverer 3.3 software (Thermo Fisher Scientific, Waltham, MA, USA). The molecular weights of these sulfane sulfur species combined with HPE-IAM were determined based on previous reports^9,11,37.
# [4] = tested on: murine primary cortical neurons; assay: Cell viability of murine primary cortical neurons incubated with MPP+ (crystal violet assay); type: cell-based, mouse; settings: MPP+ 50 μM, 24 hours
# Experimental: (§1) Cell viability assays was performed to examine cell viabilities of SH-SY5Y cells or murine primary cortical neurons 24 h after the addition of MPP^+ (5 mM for SH-SY5Y, 50 μM for primary cortical neurons) with vehicle (PBS), Na2S (Sigma-Aldrich), Na2S3 (Dojindo Molecular Technologies, Inc), GSSSG (Glutathione trisulfide, Kyowa Hakko Bio Co., Ltd., Tokyo, Japan), LA (α-Lipoic acid, Sigma-Aldrich) or LASSS (α-Lipoic acid trisulfide, Kyowa Hakko Bio Co., Ltd., Tokyo, Japan). Cell viability was measured using the crystal violet assay.
# [5] = tested on: primary cortical neurons; assay: Relative sulfane sulfur levels in primary cortical neurons (SSip-1 DA); type: cell-based, mouse; settings: incubation at 10 μM for 20 minutes; relative to untreated neurons
# Experimental: Primary cortical neurons were isolated from the cerebral cortices of C57BL/6J mice of both sexes at embryonic day 15, as previously described 39. Primary cortical neurons were maintained at 37° C. in a humidified tissue culture chamber with 5% CO2 and cells were used on day 11 after harvest.
# (§2) Primary cortical neurons or SH-SY5Y cells, a human neuroblastoma cell line (American Type Culture Collection, Manassas, VA, USA), were incubated with SSip-1 DA […] at 37° C. for 20 minutes in the dark. Cells were washed with pre-warmed HBSS containing calcium and magnesium (Thermo Fisher Scientific, Waltham, MA, USA) and then cells were incubated with GSSSG, sodium trisulfide (Na2S3; Dojindo Molecular Technologies, Inc., Rockville, MD, USA), PTN-SSS, or vehicle alone for 20 minutes at 37° C. in the dark. Fluorescence intensities were measured using a microplate reader.
# [6] = tested on: SH-SY5Y cells; assay: Cell viability of SH-SY5Y cells incubated with MPP+ (crystal violet assay); type: cell-based, human; settings: MPP+ 5 mM, 24 h
# Experimental: as §1
# [7] = Water solubility of PTN-SSS; type: physicochemical
# [8] = tested on: SH-SY5Y cells; assay: Cell viability after OGD/R, SH-SY5Y cells; type: cell-based, human
# Experimental: After reoxygenation, cell viability and cell injury were assessed using crystal violet and lactate dehydrogenase (LDH) assays, as previously described^39.
# [9] = tested on: sulfane sulfur in olfactory bulb and forebrain, whole spinal cord; assay: Relative sulfane sulfur levels in olfactory bulb and forebrain and whole spinal cord after intranasal PTN-SSS (SSip-1); type: in vivo, mouse; settings: 30 minutes after intranasal 50 mg/kg PTN-SSS; vs vehicle alone
# Experimental: At 30 minutes after intranasal administration of 50 mg/kg of PTN-SSS, the olfactory bulb and forebrain and the whole spinal cord were harvested. Tissues were homogenized in HBSS containing […] of SSip-1. The fluorescence intensities of supernatants were measured.
# [10] = Stability of PTN-SSS in solution; type: physicochemical; settings: pH 4.0-9.0 at room temperature
# [11] = tested on: SH-SY5Y cells; assay: Relative sulfane sulfur levels in SH-SY5Y cells (SSip-1 DA); type: cell-based, human; settings: PTN-SSS 10-50 μM; vs vehicle-only treated cells
# Experimental: as §2
# [12] = 30 minutes after intranasal 50 mg/kg GS^34SSG, mean ± SD
smiles,measurement,setting,value
"N[C@@H](CCC(=O)N[C@@H](CS)C(=O)NCC(=O)O)C(=O)O [GSH, glutathione, reference compound]","cell viability after OGD/R, crystal violet assay (GSSSG, GSH, GSSG comparison)",[1],did not improve cell viability
same,mice in which development of delayed paraplegia was prevented,"[2]; male mice, n=11 per group, intranasal at 0, 8, 23, 32 hours after surgery, GSSSG 50 mg/kg, GSH 45.2 mg/kg",27%
N[C@@H](CCC(=O)N[C@@H](CS[34S]SC[C@H](NC(=O)CC[C@H](N)C(=O)O)C(=O)NCC(=O)O)C(=O)NCC(=O)O)C(=O)O [GS^34SSG],"[^32S2, ^34S]GSSSG concentration in plasma",[3]; [12],25 ± 10 nM
same,"[^32S2, ^34S]GSSSG in brainstem",[3]; [12],226±101 pmol/mg protein
same,"[^32S2, ^34S]GSSSG in cervical and thoracic spinal cord",[3]; [12],414±98 pmol/mg protein
same,"[^32S2, ^34S]GSSSG in lumbar spinal cord",[3]; [12],317±111 pmol/mg protein
same,"[^32S2, ^34S]GSSSG in olfactory bulb and forebrain",[3]; [12],128±67 pmol/mg protein
same,"ratio of [^32S2, ^34S]CysSSSCys to [^32S3]CysSSSCys in brain and spinal cord",[3]; [12],31.8±9.8
same,"ratio of [^32S, ^34S]GSSH to [^32S2]GSSH in brain and spinal cord",[3]; [12],6.5±2.8
same,concentration of ^34S-labeled GSSSG in the central nervous system,"[3]; 30 minutes after intranasal GS^34SSG, all CNS tissues",268±140 pmol/mg protein
same,level of ^34S-labeled CysSSH in lumbar spinal cord,"[3]; after intranasal GS^34SSG, worked out from previously reported endogenous CysSSH level",~18 pmol/mg protein
same,level of ^34S-labeled GSSH in lumbar spinal cord,"[3]; after intranasal GS^34SSG, worked out from previously reported endogenous GSSH level","approximately 1,600 pmol/mg protein"
"O=C(O)CCCCC1CCSSS1 (centres unmarked) [LA-SSS, 1,2,3-trithiane-4-pentanoic acid]",protection of murine primary cortical neurons from the effects of MPP+ treatment,[4],protected
"[Na+].[Na+].[S-]S[S-] [Na2S3, sodium trisulfide, reference compound]",levels of intracellular sulfane sulfur in primary cortical neurons,[5],increased levels of intracellular sulfane sulfur
same,viability of MPP+-treated SH-SY5Y cells,[6]; 10 μM each,increased the viability
[Na+].[Na+].[S-2] [Na2S],viability of SH-SY5Y cells treated with MPP+,[6]; Na2S doses between 1 and 100 μM,did not improve the viability
"CC(C)(CO)[C@@H](O)C(=O)NCCC(=O)NCCSSSCCNC(=O)CCNC(=O)[C@H](O)C(C)(C)CO [PTN-SSS, pantethine trisulfide]",male mice rescued from delayed paraplegia,"[2]; PTN-SSS study, n=9 per group, intranasal PTN-SSS 50 mg/kg or PTN 47.3 mg/kg at 0, 8, 23, 32 hours after surgery",66%
same,water solubility,[7],> 50 mg/mL
same,"SH-SY5Y viability after OGD/R, crystal violet assay","[8]; PTN-SSS at 10 μM, 25 μM, or 50 μM, vs vehicle-only treated cells",significantly improved
same,"SH-SY5Y viability after OGD/R, crystal violet assay",[8]; PTN-SSS at 100 μM,did not improve cell viability
same,sulfane sulfur levels in the olfactory bulb and forebrain and the whole spinal cord,[9],increased sulfane sulfur levels
same,stable in solution,[10],at least 4 days
same,sulfane sulfur levels in SH-SY5Y cells,[11],increased significantly
